Measured values reported in patent US20070112076A1, “Methods and materials for treating retinopathy” (SOUTHERN ILLINOIS UNIVERSITY, priority 2005, published 2007).

Key:
[1] = test system: iNOS protein expression in human retinal endothelial cells; assay: Western blot of iNOS protein expression after agonist treatment of retinal endothelial cells; format: cell-based
Method: (§1) Denaturing sample buffer (1 ml 2×GDW, 640 μl 1 M Tris-HCl, pH 6.8, 420 μl 30% glycerol, 250 μl β-mercaptoethanol, 200 μL 0.05% bromophenol blue, and 0.125 g recrystallized SDS) was added to 50 μg of protein, as determined by Bradford assay. Protein samples with sample buffer were centrifuged for 5 min to thoroughly mix the samples, followed by heat denaturation for 5 min at 100° C. Protein samples were then separated on 4-12% pre-cast tris-glycine gels (Invitrogen, Carlsbad, Calif.). Electrophoresis and immunoblotting were done as previously described (Steinle et al., J. Biol. Chem. 278 (2003) (23), pp. 20681-20686) using antibodies to iNOS (diluted 1:500, Chemicon, Temecula, Calif.) and PGE2-EP2 receptor subtype (diluted 1:500, Chemicon). Mean densitometry of immunoreactive bands was assessed using Kodak software, and results are expressed in densitometric units. A paired T-test was performed between the sympathectomized and contralateral retina with significance accepted at P<0.05.
(§2) Initial studies focused on human retinal endothelial cells, which express β-adrenergic receptors. Human microvascular retinal endothelial cells were isolated by Applied Cell Biology Research Institute and sold by Cell Systems (Kirkland, Wash.). Cells were used at passage 3-5 for all experiments. Cells were identified as endothelial cells on the basis of their cobblestone morphology. Cells were grown in attachment factor-coated Corning® dishes and in either high or low glucose media. Both high and low glucose media were identical (purchased from Cell Systems and supplemented with 20% fetal bovine serum, 100 IU/ml penicillin, 100 μg/ml streptomycin, and 0.25 μg/ml amphotericin B) except for the glucose concentration: 25 mM glucose (high glc) or 5 mM glucose (low glc). Cells were adjusted to the appropriate glucose environment for 5 days before the experiments were conducted in starvation medium. Starvation medium had the appropriate concentration of glucose and contains all of the above ingredients except that 0.2% bovine serum albumin is substituted for 20% serum.
For experiments, cells were starved for 18-24 h using starvation medium to insure that the results obtained are due to agonist stimulation, not residual effects from the serum. Following starvation, 10 μM isoproterenol (non-specific β-adrenergic receptor agonist), 10 μM xamoterol (β1-adrenergic receptor subtype agonist), or 10 μM BRL37344 (β3-adrenergic receptor subtype agonist) was placed onto dishes and allowed to act on the cells for 1, 2, or 6 h. Three dishes received no treatment and serve as not-treated controls. […] The effects of xamoterol and BRL37344 were evaluated under high glucose conditions only. […]

[2] = test system: PGE2 levels in human retinal endothelial cells; assay: PGE2 ELISA in retinal endothelial cells after agonist treatment; format: cell-based; details: low or high glucose media, 10 μM, 1, 2 or 6 h
Description: as §2, with “An ELISA assay to measure PGE2 content in cell culture supernatants and retinal samples was purchased from Endogen (Pierce Biotechnology, Rockford, Ill.) and used according to the manufacturer's instructions. Initial” for “Initial”, “serum. […] The effects of xamoterol and BRL37344 were evaluated under high glucose conditions only.” for “serum.”

[3] = test system: PGE2-EP2 receptor subtype expression in human retinal endothelial cells; assay: Western blot of PGE2-EP2 receptor subtype expression in retinal endothelial cells; format: cell-based; details: low or high glucose media, 10 μM, 1, 2 or 6 h
Method: as §1
Initial studies focused on human retinal endothelial cells, which express β-adrenergic receptors. […]
For experiments, cells were starved for 18-24 h using starvation medium to insure that the results obtained are due to agonist stimulation, not residual effects from the serum. […] The effects of xamoterol and BRL37344 were evaluated under high glucose conditions only. […]

[4] = test system: PKA activity in the retina; assay: PKA ELISA on retinal lysates after eye drops; format: in vivo, rat; details: 4 drops of 100 μM eye drops
Method: Three groups of animals were used for these experiments. The first group was made diabetic by a single injection of 60 mg/kg streptozotocin and allowed to remain diabetic for 2.5 month and received 4 drops of 100 μM isoproterenol placed into both eyes (STZ). The other two groups were control groups, with one group being non-diabetic but receiving the 100 μM isoproterenol eye drops (Normal), and the other group not receiving any treatment (NT). At 4, 8 and 12 hours after treatment with isoproterenol, retina from the rats was assayed for PKA by ELISA and CREB by Western blot analysis. The retina of rats from each group was assayed for PKA by ELISA. Three rats were evaluated at each time point (4 hours, 8 hours and 12 hours). The PKA ELISA was carried out using the […] Protein Kinase Assay System from Upstate (Lake Placid, N.Y.). To begin the experiments, 0.1M ATP was made and set to a pH of 7.0. cAMP at a concentration of 20 μM was made with reagents purchased from Sigma Aldrich. To obtain the samples to be assayed, animals were sacrificed and the retina was removed and placed in reaction buffer supplied in the kit. One hundred microliters of each sample in reaction buffer was placed into coated wells of a 96-well plate in duplicate. […] Following application of 100 μL of stop solution to end the reaction with the substrate, the plate was read at 490 nm on a BioTek Plate Reader.

[5] = test system: CREB protein expression in the retina; assay: Western blot of CREB protein expression in retina after eye drops; format: in vivo, rat; details: 100 μM eye drops, diabetic animals, 8 hours, compared to the normal group
Method: Three groups of animals were used for these experiments. The first group was made diabetic by a single injection of 60 mg/kg streptozotocin and allowed to remain diabetic for 2.5 month and received 4 drops of 100 μM isoproterenol placed into both eyes (STZ). The other two groups were control groups, with one group being non-diabetic but receiving the 100 μM isoproterenol eye drops (Normal), and the other group not receiving any treatment (NT). At 4, 8 and 12 hours after treatment with isoproterenol, retina from the rats was assayed for PKA by ELISA and CREB by Western blot analysis.
Western blot analysis was also done to determine protein expression of CREB. Two rats were evaluated at each time point (4 hours, 8 hours and 12 hours). Animals were sacrificed and the eyes were removed. The retina was extracted and placed into lysis buffer (50 mM Tris-HCL, pH 7.4; 1% NP-40, 0.25% Na-deoxycholate; 150 mM NaCl; 1 mM EDTA; 1 mM PMSF; 1 μg/ml each of aprotinin, leupeptin, pepstatin; 1 mM Na3VO4; 1 mM NaF; 0.1% SDS). Protein lysates were homogenized and centrifuged to generate a pellet and supernatant. […] Immunoreactive bands were detected by enhanced SuperSignal (Pierce, Rockford, Ill.) and analyzed using the Kodak 2000R image station. Mean densitometry was assessed using Kodak software, and results are expressed as a percentage of the not treated eyes. […]

retina = details: osmotic pump in the rat; cited from earlier work
[6] = high glucose medium, 10 μM, 1, 2 or 6 h, vs. NT

In the case of `C[C@H](Cc1ccc(OCC(=O)O)cc1)NC[C@H](O)c1cccc(Cl)c1` [BRL37344], the iNOS protein expression [1, 6] is reported as “no effect”.

In the case of `CC(C)NCC(O)c1ccc(O)c(O)c1` (centres unmarked) [isoproterenol], the iNOS protein expression ([1]; high glucose (25 mM) medium, 10 μM, 6 h, P<0.05 vs. not treated) is reported as “significantly reduced”, the iNOS protein expression ([1]; low glucose (5 mM) medium, 10 μM, 6 h, P<0.05 vs. not treated) is reported as “upregulation” and the PGE2 protein levels [2] is reported as “did not affect”. The “PGE2-EP2 receptor subtype expression” value [3] was “did not affect”, the “PKA activity in retina” value ([4]; 12 hours after treatment) was “significantly increased at 12 hours after treatment relative to the normal, but not when compared to the not treated group” and the “PKA activity in retina” value ([4]; STZ diabetic rats, 8-hour time point, P<0.05 vs. not-treated and vs. normal) was “significantly increased”. The “CREB protein expression in retina” value [5] was “substantial increase”.

In the case of `Cc1ccc(N(CC2=NCCN2)c2cccc(O)c2)cc1` [phentolamine], the “retinal changes as observed after sympathectomy” value (retina) is listed as “no effect”.

For `CC(C)NCC(O)COc1cccc2ccccc12` (centres unmarked) [propranolol], the “retinal changes as observed after sympathectomy” value (retina) is listed as “can be mimicked”.

With `O=C(NCCNCC(O)COc1ccc(O)cc1)N1CCOCC1` (centres unmarked) [xamoterol] the iNOS protein expression [1, 6] was “decreased iNOS protein expression”.
